Assays:
BRAF = BRAF (Homo sapiens (Human), UniProt P15056); experiment: Z′-LYTE kinase inhibition assay (Invitrogen), BRAF; format: biochemical; details: 1 μM compound, Z′-LYTE method; read-out: % inhibition at 1 μM against BRAF
Procedure: Inhibitory activities Inhibitory activities of compounds against BRAF, and BRAF V600E were measured by Invitrogen using Z′-LYTE® Method as briefly described in the following. 4× Test compounds are dissolved in 1% DMSO. […] ATP solutions are diluted to a 4×ATP working concentration in Kinase Buffer (50 mM HEPES pH 7.5, 0.01% BRIJ-35, 10 mM MgCl2, 1 mM EGTA). Reaction started by 30-second shaking of mixture consisting of 2.5 μL 4× test compound, […] and 2.5 μL 4×ATP Solution on Bar-coded Corning, low volume NBS, black 384-well plate (Corning Cat. #3676). Then the mixture was incubated for 60-minute at room temperature for the kinase reaction, followed by addition of 5 μL of a 1:1024 dilution of development reagent A and 30-second plate shake. The mixture was then incubated for another 60-minute at room temperature for development reaction. Fluorescence was read by plate reader. IC50 was calculated by plotting the concentration of compound vs the percentage of inhibition in treated wells using GraphPad Prism 5.

BRAF V600E = BRAF V600E (Homo sapiens (Human), UniProt P15056, V600E); experiment: Z′-LYTE kinase inhibition assay (Invitrogen), BRAF V600E; format: biochemical; details: Z′-LYTE method; for inhibition at 1 µM: 1 μM compound, read-out: % inhibition at 1 μM against BRAF V600E; for IC50: read-out: IC50 against BRAF V600E
Sequence of BRAF V600E (P15056 whole entry V600E): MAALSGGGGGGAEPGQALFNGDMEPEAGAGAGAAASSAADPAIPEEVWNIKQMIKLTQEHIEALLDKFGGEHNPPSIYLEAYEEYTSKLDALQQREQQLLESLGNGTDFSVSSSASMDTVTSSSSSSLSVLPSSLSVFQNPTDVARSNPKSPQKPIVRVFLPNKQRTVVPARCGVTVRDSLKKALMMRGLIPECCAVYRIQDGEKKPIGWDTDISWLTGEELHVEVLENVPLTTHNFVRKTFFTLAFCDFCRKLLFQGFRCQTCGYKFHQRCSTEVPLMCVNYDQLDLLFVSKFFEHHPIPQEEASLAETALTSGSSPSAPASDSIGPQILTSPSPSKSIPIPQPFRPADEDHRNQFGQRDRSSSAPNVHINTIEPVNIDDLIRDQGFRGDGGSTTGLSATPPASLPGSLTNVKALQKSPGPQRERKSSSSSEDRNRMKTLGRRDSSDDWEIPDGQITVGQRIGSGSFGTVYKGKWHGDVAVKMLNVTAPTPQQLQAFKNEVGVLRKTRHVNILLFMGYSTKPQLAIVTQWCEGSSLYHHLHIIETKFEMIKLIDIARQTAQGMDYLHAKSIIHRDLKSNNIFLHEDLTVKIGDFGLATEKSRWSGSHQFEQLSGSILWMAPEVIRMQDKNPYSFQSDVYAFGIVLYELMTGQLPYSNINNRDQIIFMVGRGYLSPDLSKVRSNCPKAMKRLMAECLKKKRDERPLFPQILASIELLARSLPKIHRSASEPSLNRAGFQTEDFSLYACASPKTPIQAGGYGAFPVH
How it was run: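 FRET-based Z′-LYTE peptide phosphorylation format in 50 mM HEPES pH 7.5, 0.01% BRIJ-35, 10 mM MgCl2, 1 mM EGTA with ATP. Kinase reaction 60 min at room temperature, then protease development step 60 min at room temperature before fluorescence read. IC50 from compound concentration versus percent inhibition.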

KDR (VEGFR2) = KDR (VEGFR2) (Homo sapiens (Human), UniProt P35968); experiment: Z′-LYTE kinase inhibition assay (Invitrogen), KDR; format: biochemical; details: Z′-LYTE method; for inhibition at 1 µM: 1 μM compound, read-out: % inhibition at 1 μM against KDR; for IC50: read-out: IC50 against KDR
Sequence of KDR (VEGFR2) (P35968 20-1356): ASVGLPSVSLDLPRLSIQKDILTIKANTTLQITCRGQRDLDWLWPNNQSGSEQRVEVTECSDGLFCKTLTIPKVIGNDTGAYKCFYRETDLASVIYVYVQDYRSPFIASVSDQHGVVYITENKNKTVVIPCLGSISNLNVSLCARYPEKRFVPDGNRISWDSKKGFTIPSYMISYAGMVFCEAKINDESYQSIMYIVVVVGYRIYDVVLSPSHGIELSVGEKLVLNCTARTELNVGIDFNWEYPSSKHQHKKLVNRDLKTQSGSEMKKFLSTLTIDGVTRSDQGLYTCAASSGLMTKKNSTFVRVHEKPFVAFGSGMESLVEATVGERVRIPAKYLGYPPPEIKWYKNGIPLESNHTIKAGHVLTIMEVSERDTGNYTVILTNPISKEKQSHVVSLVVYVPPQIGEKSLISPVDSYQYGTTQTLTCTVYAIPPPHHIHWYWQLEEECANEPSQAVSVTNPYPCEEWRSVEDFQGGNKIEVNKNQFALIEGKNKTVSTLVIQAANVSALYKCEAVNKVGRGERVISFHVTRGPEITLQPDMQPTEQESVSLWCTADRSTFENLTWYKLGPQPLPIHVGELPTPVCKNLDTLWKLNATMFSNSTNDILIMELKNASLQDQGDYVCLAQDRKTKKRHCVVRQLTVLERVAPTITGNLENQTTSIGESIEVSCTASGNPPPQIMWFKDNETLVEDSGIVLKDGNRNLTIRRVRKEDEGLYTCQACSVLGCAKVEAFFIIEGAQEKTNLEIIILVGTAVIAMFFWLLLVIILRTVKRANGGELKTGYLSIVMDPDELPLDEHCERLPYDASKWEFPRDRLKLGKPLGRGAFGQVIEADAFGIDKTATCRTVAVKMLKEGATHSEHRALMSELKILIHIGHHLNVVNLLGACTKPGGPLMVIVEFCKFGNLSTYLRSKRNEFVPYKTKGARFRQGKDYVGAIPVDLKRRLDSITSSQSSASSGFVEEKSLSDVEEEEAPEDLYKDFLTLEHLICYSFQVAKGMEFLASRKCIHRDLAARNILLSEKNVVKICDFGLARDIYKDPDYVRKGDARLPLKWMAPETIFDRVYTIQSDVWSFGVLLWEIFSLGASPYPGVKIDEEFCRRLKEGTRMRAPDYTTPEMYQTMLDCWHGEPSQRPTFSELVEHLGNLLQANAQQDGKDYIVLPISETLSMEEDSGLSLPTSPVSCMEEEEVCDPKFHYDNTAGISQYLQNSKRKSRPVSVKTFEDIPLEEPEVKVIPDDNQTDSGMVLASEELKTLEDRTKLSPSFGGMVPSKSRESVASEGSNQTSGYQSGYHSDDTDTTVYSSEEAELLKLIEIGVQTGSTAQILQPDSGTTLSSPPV
How it was run: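 Z′-LYTE FRET assay: 10 μL reactions with 0.5–11.7 ng KDR and 2 μM Tyr 01 peptide in 50 mM HEPES pH 7.5, 10 mM MgCl2, 1 mM EGTA, 0.01% BRIJ-35, 1 h at room temperature. Development Reagent B (1:256) added for 60 min, fluorescence read; IC50 from concentration–inhibition curves.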

A375 cells = experiment: Inhibition of cancer cell growth, MTT assay, A375; format: cell-based; details: Homo sapiens, A-375, 72 h exposure
How it was run: (§1)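 Cells grown in RPMI 1640 with 10% FBS were seeded at about 4000 cells/well, left 24 h, then exposed to compound for 72 h (1% DMSO final). MTT absorbance at 570 nm was compared with viable cells at time of addition to give growth inhibition; IC50 from concentration–inhibition plots, triplicates.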

A549 cells = experiment: Inhibition of cancer cell growth, MTT assay, A549; format: cell-based; details: Homo sapiens, A549, 72 h exposure
How it was run: as §1

Sequence of BRAF (P15056 whole entry): as the sequence (P15056 whole entry V600E) above, with E600V counted along it

Structure (SMILES) | inhibition at 1 µM (BRAF) [%] | inhibition at 1 µM (BRAF V600E) [%] | inhibition at 1 µM (KDR (VEGFR2)) [%] | IC50 (A375 cells) [nM] | IC50 (A549 cells) [nM] | IC50 (BRAF V600E) [nM] | IC50 (KDR (VEGFR2)) [nM]
O=C(Nc1cc(F)cc(C(=O)c2ccc3ncc(N4CCOCC4)nc3c2)c1)Nc1ccc(Cl)c(C(F)(F)F)c1 [Compound C031, 1-(4-chloro-3-(trifluoromethyl)phenyl)-3-(3-fluoro-5-(3-morpholinoquinoxaline-6-carbonyl)phenyl)urea] | < 70 | 70 to 89 | 70 to 89 | < 1000 | 2000 to 5000 | – | –
O=C(Nc1cc(F)c(F)c(C(=O)c2ccc3ncc(N4CCOCC4)nc3c2)c1)c1ccc(Cl)c(C(F)(F)F)c1 [Compound C146, 4-chloro-N-(3,4-difluoro-5-(3-morpholinoquinoxaline-6-carbonyl)phenyl)-3-(trifluoromethyl)benzamide] | < 70 | 70 to 89 | > 89 | < 1000 | 2000 to 5000 | > 100 | < 100
O=C(Nc1cncc(Cl)c1)Nc1ccc(F)c(C(=O)c2ccc3ncc(N4CCOCC4)nc3c2)c1 [Compound C081, 1-(5-chloropyridin-3-yl)-3-(4-fluoro-3-(3-morpholinoquinoxaline-6-carbonyl)phenyl)urea] | > 89 | > 89 | 70 to 89 | < 1000 | > 5000 | – | –
O=C(Nc1ccnc(C(F)(F)F)c1)Nc1ccc(F)c(C(=O)c2ccc3ncc(N4CCOCC4)nc3c2)c1 [Compound C090, 1-(4-fluoro-3-(3-morpholinoquinoxaline-6-carbonyl)phenyl)-3-(2-(trifluoromethyl)pyridin-4-yl)urea] | > 89 | > 89 | 70 to 89 | < 1000 | > 5000 | – | –
COc1cnc2ccc(C(=O)c3cc(NC(=O)Nc4ccc(F)c(F)c4)ccc3F)cc2n1 [Compound C082, 1-(3,4-difluorophenyl)-3-(4-fluoro-3-(3-methoxyquinoxaline-6-carbonyl)phenyl)urea] | < 70 | > 89 | 70 to 89 | 1000 to 5000 | 2000 to 5000 | – | –
O=C(Nc1cccc(C(=O)c2ccc3ncc(-n4ccnc4)nc3c2)c1)c1ccc(Cl)c(C(F)(F)F)c1 [Compound C132, N-(3-(3-(1H-imidazol-1-yl)quinoxaline-6-carbonyl)phenyl)-4-chloro-3-(trifluoromethyl)benzamide] | < 70 | > 89 | 70 to 89 | < 1000 | > 5000 | – | –
O=C(Nc1ccc(F)c(C(=O)c2ccc3ncc(N4CCOCC4)nc3c2)c1)c1cccc(C(F)(F)F)c1 [Compound C141, N-(4-fluoro-3-(3-morpholinoquinoxaline-6-carbonyl)phenyl)-3-(trifluoromethyl)benzamide] | < 70 | > 89 | > 89 | < 1000 | < 2000 | < 100 | < 100
O=C(Nc1cc(F)c(F)c(C(=O)c2ccc3nccnc3c2)c1F)c1cccc(C(F)(F)F)c1 [Compound C109, N-(2,4,5-trifluoro-3-(quinoxaline-6-carbonyl)phenyl)-3-(trifluoromethyl)benzamide] | < 70 | 70 to 89 | 70 to 89 | > 5000 | 2000 to 5000 | > 100 | > 100
O=C(Nc1cccc(C(=O)c2ccc3nccnc3c2)c1)c1cccc(F)c1 [Compound C105, 3-fluoro-N-(3-(quinoxaline-6-carbonyl)phenyl)benzamide] | < 70 | 70 to 89 | < 70 | 1000 to 5000 | < 2000 | – | –
O=C(Nc1cccc(F)c1)Nc1cc(F)c(F)c(C(=O)c2ccc3ncc(N4CCOCC4)nc3c2)c1 [Compound C039, 1-(3,4-difluoro-5-(3-morpholinoquinoxaline-6-carbonyl)phenyl)-3-(3-fluorophenyl)urea] | 70 to 89 | > 89 | 70 to 89 | 1000 to 5000 | 2000 to 5000 | – | –
O=C(Nc1cccc(C(=O)c2ccc3ncc(N4CCOCC4)nc3c2)c1)c1cccc(C(F)(F)F)c1 [Compound C119, N-(3-(3-morpholinoquinoxaline-6-carbonyl)phenyl)-3-(trifluoromethyl)benzamide] | 70 to 89 | > 89 | > 89 | < 1000 | 2000 to 5000 | < 100 | < 100
O=C(Nc1ccc(F)c(C(=O)c2ccc3nccnc3c2)c1)Nc1ccc(Cl)c(C(F)(F)F)c1 [Compound C015, 1-(4-chloro-3-(trifluoromethyl)phenyl)-3-(4-fluoro-3-(quinoxaline-6-carbonyl)phenyl)urea] | < 70 | > 89 | > 89 | < 1000 | < 2000 | < 100 | < 100
O=C(Nc1cccc(C(=O)c2ccc3nccnc3c2)c1)Nc1cccc(C(F)(F)F)c1 [Compound C009, 1-(3-(quinoxaline-6-carbonyl)phenyl)-3-(3-(trifluoromethyl)phenyl)urea] | 70 to 89 | 70 to 89 | > 89 | > 5000 | 2000 to 5000 | < 100 | < 100
O=C(Nc1cccc(Cl)c1)Nc1cccc(C(=O)c2ccc3nccnc3c2)c1 [Compound C003, 1-(3-chlorophenyl)-3-(3-(quinoxaline-6-carbonyl)phenyl)urea] | 70 to 89 | > 89 | 70 to 89 | < 1000 | 2000 to 5000 | – | –
O=C(Nc1cc(F)c(F)c(C(=O)c2ccc3ncc(N4CCOCC4)nc3c2)c1)c1cccc(C(F)(F)F)c1 [Compound C145, N-(3,4-difluoro-5-(3-morpholinoquinoxaline-6-carbonyl)phenyl)-3-(trifluoromethyl)benzamide] | < 70 | > 89 | > 89 | < 1000 | > 5000 | < 100 | < 100
O=C(Nc1ccc(F)c(F)c1)Nc1ccc(F)c(C(=O)c2ccc3ncc(NCCO)nc3c2)c1 [Compound C087, 1-(3,4-difluorophenyl)-3-(4-fluoro-3-(3-((2-hydroxyethyl)amino)quinoxaline-6-carbonyl)phenyl)urea] | > 89 | > 89 | > 89 | < 1000 | 2000 to 5000 | – | –
O=C(Nc1ccc(Cl)c(Cl)c1)Nc1ccc(F)c(C(=O)c2ccc3nccnc3c2)c1 [Compound C076, 1-(3,4-dichlorophenyl)-3-(4-fluoro-3-(quinoxaline-6-carbonyl)phenyl)urea] | 70 to 89 | > 89 | 70 to 89 | < 1000 | 2000 to 5000 | – | –
O=C(Nc1cccc(C(=O)c2ccc3nccnc3c2)c1)Nc1ccc(Cl)c(C(F)(F)F)c1 [Compound C004, 1-(4-chloro-3-(trifluoromethyl)phenyl)-3-(3-(quinoxaline-6-carbonyl)phenyl)urea] | 70 to 89 | > 89 | 70 to 89 | 1000 to 5000 | < 2000 | < 100 | < 100
Cn1cc(-c2cnc3ccc(C(=O)c4cccc(NC(=O)Nc5ccc(Cl)c(C(F)(F)F)c5)c4)cc3n2)cn1 [Compound C028, 1-(4-chloro-3-(trifluoromethyl)phenyl)-3-(3-(3-(1-methyl-1H-pyrazol-4-yl)quinoxaline-6-carbonyl)phenyl)urea] | 70 to 89 | > 89 | > 89 | < 1000 | < 2000 | < 100 | < 100

Source: US10759766B2, “Certain chemical entities, compositions, and methods” (NeuPharma, Inc., priority 2011, dated 2020)
